Experimental data: the CheMixHub drug solubility set

Assay: xn = mol fraction of the nth substance listed, in the solute-free solvent

FC(F)(F)c1cccnc1Cl + CN(C)C=O + CCO
solubility (g/100 g solution)
Settings | 263.15 K | 268.15 K | 273.15 K | 278.15 K | 283.15 K | 288.15 K | 293.15 K | 298.15 K | 303.15 K
x2 = 0.2013 | 36.2 | 43.5 | 51.6 | 59 | 67 | 74.8 | 82.5 | 89.4 | 95.4
x2 = 0.3352 | 41.2 | 48.1 | 56.3 | 62.5 | 69.5 | 77 | 83.4 | 90.3 | 96
x2 = 0.5291 | 47.4 | 53.8 | 60.5 | 66.9 | 73.2 | 79.9 | 85.7 | 91.4 | 96.8
x2 = 0.7496 | 51.2 | 57.2 | 63.7 | 69.6 | 75.4 | 81.3 | 86.7 | 92.5 | 97.7

CCOc1ccccc1C(N)=O + CO + CC#N
solubility (g/100 g solution)
Settings | x2 = 0.1 | x2 = 0.2 | x2 = 0.3 | x2 = 0.4 | x2 = 0.5 | x2 = 0.6 | x2 = 0.7 | x2 = 0.8 | x2 = 0.9
293.15 K | 3.86 | 5.1 | 6.26 | 7.41 | 8.25 | 8.88 | 8.99 | 8.83 | 8.26
298.15 K | 4.9 | 6.33 | 7.81 | 9.11 | 10.1 | 11 | 11.1 | 10.7 | 10.1
303.15 K | 6.47 | 8.36 | 10.2 | 11.5 | 12.8 | 13.6 | 13.7 | 13.4 | 12.6
308.15 K | 8.43 | 10.8 | 12.9 | 14.4 | 15.6 | 16.5 | 16.4 | 16.3 | 15.1
313.15 K | 10.8 | 13.5 | 16 | 18.1 | 19.3 | 20.4 | 20.4 | 19.8 | 18.5
318.15 K | 13.7 | 16.8 | 19.7 | 21.9 | 23.4 | 24.4 | 24.5 | 24 | 22.7
323.15 K | 17.3 | 21 | 24 | 26.4 | 28.3 | 29.2 | 29.3 | 28.5 | 27.1

Cl.NC(Cc1ccccc1)C(=O)OCc1ccccc1 (stereo not given) + CO + CC(C)=O
solubility (g/100 g solution)
Settings | x2 = 0.1 | x2 = 0.2 | x2 = 0.3 | x2 = 0.4 | x2 = 0.5 | x2 = 0.6 | x2 = 0.7 | x2 = 0.8 | x2 = 0.9
283.15 K | 0.104 | 0.31 | 1.34 | 2.29 | 3.85 | 5.52 | 7.5 | 9.27 | 11.1
293.15 K | 0.238 | 0.665 | 1.52 | 2.75 | 4.55 | 6.53 | 8.94 | 11 | 13.1
303.15 K | 0.306 | 0.778 | 1.83 | 3.37 | 5.58 | 7.97 | 10.7 | 13.6 | 15.5
313.15 K | 0.482 | 0.999 | 2.35 | 4.15 | 6.96 | 9.8 | 13.2 | 15.8 | 18.4
323.15 K | 0.588 | 1.3 | 2.96 | 5.13 | 8.44 | 12.1 | 15.8 | 19.4 | 21.6

C#CC1(O)CCC2C3CCC4=CC(=O)CCC4C3C(=C)CC21CC (stereo not given) + CO + O
solubility (g/100 g solution)
Settings | x2 = 0.05881 | x2 = 0.1233 | x2 = 0.1942 | x2 = 0.2727 | x2 = 0.3599 | x2 = 0.4576 | x2 = 0.5675 | x2 = 0.6923 | x2 = 0.835
273.15 K | 0.987 | 1.09 | 1.19 | 1.31 | 1.32 | 1.44 | 1.45 | 1.62 | 3.44
278.15 K | 1.1 | 1.19 | 1.31 | 1.46 | 1.47 | 1.6 | 1.7 | 1.9 | 3.82
283.15 K | 1.2 | 1.28 | 1.43 | 1.59 | 1.61 | 1.74 | 1.95 | 2.15 | 4.22
288.15 K | 1.31 | 1.39 | 1.56 | 1.75 | 1.77 | 1.88 | 2.21 | 2.46 | 4.66
293.15 K | 1.42 | 1.49 | 1.68 | 1.91 | 1.92 | 2.03 | 2.49 | 2.8 | 5.13
298.15 K | 1.52 | 1.59 | 1.8 | 2.05 | 2.08 | 2.17 | 2.74 | 3.18 | 5.62
303.15 K | 1.62 | 1.68 | 1.91 | 2.21 | 2.23 | 2.3 | 3.01 | 3.61 | 6.16
308.15 K | 1.71 | 1.76 | 2.01 | 2.35 | 2.38 | 2.43 | 3.28 | 4.07 | 6.71
313.15 K | 1.79 | 1.84 | 2.12 | 2.48 | 2.51 | 2.54 | 3.54 | 4.52 | 7.27
318.15 K | 1.86 | 1.92 | 2.21 | 2.62 | 2.66 | 2.64 | 3.78 | 5.05 | 7.92
323.15 K | 1.93 | 1.98 | 2.29 | 2.73 | 2.78 | 2.72 | 4 | 5.59 | 8.54

CC1CCC2C(C)C(OC(=O)CCC(=O)O)OC3OC4(C)CCC1C32OO4 (stereo not given) + CO + O
solubility (g/100 g solution)
Settings | 278.15 K | 283.15 K | 288.15 K | 293.15 K | 298.15 K | 303.15 K | 308.15 K | 313.15 K | 318.15 K
x2 = 0.05887 | 0.112 | 0.144 | 0.181 | 0.228 | 0.276 | 0.346 | 0.424 | 0.514 | 0.625
x2 = 0.1235 | 0.366 | 0.464 | 0.566 | 0.693 | 0.82 | 0.997 | 1.19 | 1.41 | 1.67
x2 = 0.1941 | 0.818 | 0.996 | 1.2 | 1.44 | 1.67 | 1.99 | 2.35 | 2.73 | 3.17
x2 = 0.2725 | 1.42 | 1.69 | 2 | 2.36 | 2.71 | 3.17 | 3.68 | 4.22 | 4.83
x2 = 0.36 | 2.09 | 2.46 | 2.87 | 3.34 | 3.8 | 4.37 | 5.01 | 5.65 | 6.39
x2 = 0.4579 | 2.79 | 3.23 | 3.73 | 4.29 | 4.84 | 5.49 | 6.23 | 6.99 | 7.79
x2 = 0.5666 | 3.54 | 4 | 4.58 | 5.22 | 5.83 | 6.54 | 7.36 | 8.18 | 9.06
x2 = 0.6924 | 4.36 | 4.87 | 5.46 | 6.22 | 6.9 | 7.65 | 8.52 | 9.37 | 10.3
x2 = 0.8362 | 5.15 | 5.63 | 6.33 | 7.1 | 7.82 | 8.58 | 9.48 | 10.4 | 11.2

c1ccc(-c2ccc(C(c3ccccc3)n3ccnc3)cc2)cc1 (stereo not given) + CO + O
solubility (g/100 g solution)
Settings | 278.15 K | 283.15 K | 288.15 K | 293.15 K | 298.15 K | 303.15 K | 308.15 K | 313.15 K | 318.15 K
x2 = 0.05881 | 0.0843 | 0.114 | 0.153 | 0.198 | 0.236 | 0.32 | 0.418 | 0.51 | 0.631
x2 = 0.1233 | 0.301 | 0.4 | 0.525 | 0.671 | 0.792 | 1.05 | 1.35 | 1.63 | 1.98
x2 = 0.1942 | 0.641 | 0.845 | 1.1 | 1.39 | 1.74 | 2.21 | 2.78 | 3.35 | 3.94
x2 = 0.2727 | 0.98 | 1.28 | 1.66 | 2.1 | 2.5 | 3.23 | 4.06 | 4.89 | 5.86
x2 = 0.3599 | 1.23 | 1.68 | 2.17 | 2.73 | 3.35 | 4.17 | 5.19 | 6.23 | 7.39
x2 = 0.4576 | 1.42 | 1.87 | 2.41 | 3.07 | 3.72 | 4.76 | 5.94 | 7.21 | 8.64
x2 = 0.5675 | 1.6 | 2.11 | 2.72 | 3.56 | 4.38 | 5.54 | 6.87 | 8.37 | 9.89
x2 = 0.6923 | 1.81 | 2.39 | 3.08 | 3.95 | 4.89 | 6.2 | 7.71 | 9.46 | 11.3
x2 = 0.835 | 2.04 | 2.8 | 3.67 | 4.72 | 5.88 | 7.29 | 8.87 | 10.8 | 12.9
